The supplement of paper PMC6045584
± gives the standard deviation of the averaged measurements.

Key:
[1] = compound: CC[C@@H](C(=O)[C@@H](C)[C@@H](O)[C@H](C)[C@@H]1O[C@@H]([C@@H](CC)C(=O)O)CC[C@@H]1C)[C@H]1O[C@]2(C=C[C@@H](O)[C@]3(CC[C@@](C)([C@H]4CC[C@](O)(CC)[C@H](C)O4)O3)O2)[C@H](C)C[C@@H]1C [SALINOMYCIN]; assay: surviving fraction relative to DMSO-only wells; higher = less growth inhibition; details: exposure time: 5 days
In short: (§1)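 Lines were retained only if, across three screens, replicate Pearson r was >0.7 and median Z' was >0.3. Viability was measured as CellTiter-Glo luminescence and reported as surviving fraction relative to the median of DMSO-only wells. Readings followed 10 minutes at room temperature, after log-phase tumour cells seeded at 250–500 per well in 384-well plates had been exposed, from 24 hours after seeding, continuously for five days to inhibitors at 0.5, 1, 5, 10, 50, 100, 500 and 1000 nM.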

[2] = compound: Oc1ccc(/C=C/c2cc(O)cc(O)c2)cc1 [RESVERATROL]; assay: as above; details: exposure time: 5 days
In short: as §1

Test System | surviving fraction ([1]; 0.5 nM) | surviving fraction ([1]; 1 nM) | surviving fraction ([1]; 5 nM) | surviving fraction ([1]; 10 nM) | surviving fraction ([1]; 50 nM) | surviving fraction ([1]; 100 nM) | surviving fraction ([1]; 500 nM) | surviving fraction ([1]; 1000 nM) | surviving fraction ([2]; 0.5 nM) | surviving fraction ([2]; 1 nM) | surviving fraction ([2]; 5 nM) | surviving fraction ([2]; 10 nM) | surviving fraction ([2]; 50 nM) | surviving fraction ([2]; 100 nM) | surviving fraction ([2]; 500 nM) | surviving fraction ([2]; 1000 nM)
SUM44 BREAST | 0.967 ± 0.033 | 0.959 ± 0.021 | 0.995 ± 0.042 | 0.992 ± 0.017 | 1.01 ± 0.033 | 1.02 ± 0.028 | 0.852 ± 0.031 | 0.748 ± 0.037 | 1.1 ± 0.1 | 1.18 ± 0.28 | 1.19 ± 0.27 | 1.25 ± 0.36 | 1.1 ± 0.17 | 1.21 ± 0.26 | 1.2 ± 0.3 | 1.31 ± 0.41
MDAMB134 BREAST | 1.05 ± 0.26 | 1.01 ± 0.22 | 0.995 ± 0.0042 | 1.08 ± 0.015 | 1.02 ± 0.069 | 1.05 ± 0.021 | 1.32 ± 0.041 | 1.04 ± 0.037 | 0.894 ± 0.15 | 1.02 ± 0.045 | 0.864 ± 0.11 | 0.811 ± 0.016 | 1.06 ± 0.14 | 1.04 ± 0.15 | 1.057 ± 0.0028 | 1.08 ± 0.048
MHM BONE | 0.988 ± 0.042 | 0.981 ± 0.046 | 1.01 ± 0.019 | 0.9657 ± 0.0042 | 1.037 ± 0.009 | 1.081 ± 0.0025 | 0.921 ± 0.044 | 0.694 ± 0.054 | 0.997 ± 0.013 | 1.02 ± 0.015 | 1.03 ± 0.012 | 1.03 ± 0.018 | 1.06 ± 0.032 | 1.06 ± 0.049 | 0.998 ± 0.025 | 1.045 ± 0.0076
HCT15 LARGE INTESTINE | 0.933 ± 0.022 | 0.843 ± 0.059 | 0.894 ± 0.028 | 0.589 ± 0.016 | 1.03 ± 0.041 | 0.964 ± 0.015 | 0.893 ± 0.032 | 0.442 ± 0.029 | 0.982 ± 0.12 | 1.03 ± 0.12 | 1.02 ± 0.1 | 1.02 ± 0.093 | 1.05 ± 0.08 | 1.06 ± 0.095 | 0.968 ± 0.15 | 1.08 ± 0.11
VCAP PROSTATE | 1.07 ± 0.18 | 1.04 ± 0.12 | 1.09 ± 0.074 | 1.14 ± 0.053 | 1.08 ± 0.13 | 1.04 ± 0.023 | 0.245 ± 0.044 | 0.144 ± 0.0072 | 1.02 ± 0.18 | 0.812 ± 0.12 | 0.994 ± 0.12 | 1.02 ± 0.13 | 0.901 ± 0.061 | 0.978 ± 0.017 | 0.88 ± 0.07 | 0.931 ± 0.18
HCC78 LUNG | 0.833 ± 0.18 | 0.693 ± 0.063 | 0.855 ± 0.17 | 0.948 ± 0.071 | 0.72 ± 0.095 | 0.697 ± 0.24 | 0.228 ± 0.014 | 0.143 ± 0.022 | 0.894 ± 0.15 | 0.894 ± 0.065 | 0.983 ± 0.035 | 1.05 ± 0.15 | 1.12 ± 0.2 | 1.03 ± 0.1 | 0.901 ± 0.26 | 0.904 ± 0.1
SUM149.B1*.S BREAST | 1.02 ± 0.052 | 0.884 ± 0.057 | 0.955 ± 0.016 | 0.609 ± 0.014 | 0.982 ± 0.051 | 0.768 ± 0.032 | 0.3677 ± 0.0023 | 0.294 ± 0.016 | 1.05 ± 0.056 | 1.09 ± 0.041 | 1.08 ± 0.051 | 1.1 ± 0.061 | 1.02 ± 0.036 | 1.128 ± 0.0016 | 1.09 ± 0.043 | 1.14 ± 0.026
NY BONE | 0.929 ± 0.024 | 0.9297 ± 0.0087 | 0.965 ± 0.018 | 0.928 ± 0.021 | 0.851 ± 0.028 | 0.654 ± 0.0095 | 0.241 ± 0.009 | 0.136 ± 0.0072 | 0.936 ± 0.024 | 0.976 ± 0.03 | 1.06 ± 0.022 | 1.06 ± 0.048 | 1.01 ± 0.035 | 1.05 ± 0.047 | 0.951 ± 0.0076 | 1.01 ± 0.054
CHLA90 AUTONOMIC GANGLIA | 0.992 ± 0.017 | 0.9167 ± 0.0091 | 0.926 ± 0.014 | 0.396 ± 0.01 | 0.949 ± 0.069 | 0.877 ± 0.048 | 0.169 ± 0.028 | 0.0267 ± 0.00058 | 1.01 ± 0.075 | 0.996 ± 0.049 | 0.984 ± 0.024 | 1.03 ± 0.033 | 0.962 ± 0.056 | 1.07 ± 0.043 | 1.07 ± 0.064 | 1.08 ± 0.053
SAOS2 BONE | 0.98 ± 0.038 | 0.902 ± 0.077 | 0.946 ± 0.073 | 0.8803 ± 0.0075 | 1.06 ± 0.097 | 1.11 ± 0.05 | 0.763 ± 0.016 | 0.488 ± 0.018 | 1.16 ± 0.15 | 1.24 ± 0.047 | 1.24 ± 0.091 | 1.23 ± 0.061 | 1.26 ± 0.11 | 1.22 ± 0.089 | 1.24 ± 0.084 | 1.18 ± 0.072
SNU475 LIVER | 0.974 ± 0.027 | 0.86 ± 0.032 | 0.952 ± 0.029 | 0.423 ± 0.0047 | 1.04 ± 0.036 | 0.871 ± 0.033 | 0.46 ± 0.046 | 0.31 ± 0.018 | 0.98 ± 0.043 | 1.04 ± 0.029 | 1.02 ± 0.06 | 0.988 ± 0.029 | 0.9453 ± 0.006 | 1.01 ± 0.014 | 0.99 ± 0.035 | 1.04 ± 0.017
HSSYII SYNOVIAL | 0.892 ± 0.033 | 0.842 ± 0.027 | 0.864 ± 0.043 | 0.582 ± 0.026 | 0.94 ± 0.017 | 0.743 ± 0.033 | 0.0705 ± 0.0015 | 0.0267 ± 0.0019 | 0.951 ± 0.067 | 1.01 ± 0.029 | 1.01 ± 0.015 | 0.995 ± 0.016 | 0.967 ± 0.04 | 0.971 ± 0.079 | 0.9 ± 0.03 | 0.917 ± 0.043
LNCAP PROSTATE | 0.833 ± 0.096 | 0.884 ± 0.07 | 0.818 ± 0.18 | 0.815 ± 0.11 | 0.643 ± 0.01 | 0.215 ± 0.013 | 0.0563 ± 0.005 | 0.0493 ± 0.0031 | 0.912 ± 0.051 | 0.987 ± 0.098 | 0.897 ± 0.11 | 0.775 ± 0.12 | 1.04 ± 0.16 | 0.919 ± 0.11 | 0.914 ± 0.08 | 0.956 ± 0.18
SCC90 HEADNECK | 0.897 ± 0.073 | 0.919 ± 0.035 | 1.16 ± 0.059 | 0.986 ± 0.14 | 1.17 ± 0.2 | 0.963 ± 0.057 | 0.301 ± 0.041 | 0.255 ± 0.067 | 1.01 ± 0.012 | 1.045 ± 0.0079 | 1.12 ± 0.15 | 1.08 ± 0.021 | 1.03 ± 0.061 | 1.05 ± 0.064 | 1.05 ± 0.019 | 0.956 ± 0.076
HOSMNG BONE | 0.987 ± 0.1 | 0.945 ± 0.13 | 1.03 ± 0.086 | 0.985 ± 0.15 | 1.05 ± 0.13 | 0.993 ± 0.18 | 0.909 ± 0.09 | 0.511 ± 0.12 | 0.83 ± 0.15 | 0.872 ± 0.023 | 0.832 ± 0.1 | 0.722 ± 0.061 | 0.827 ± 0.11 | 0.877 ± 0.11 | 0.878 ± 0.072 | 0.924 ± 0.1
JURKAT HAEMATOPOIETIC AND LYMPHOID TISSUE | 1.08 ± 0.011 | 1.09 ± 0.028 | 1.03 ± 0.02 | 1.04 ± 0.042 | 0.815 ± 0.024 | 0.673 ± 0.018 | 0.23 ± 0.005 | 0.101 ± 0.0053 | 1.022 ± 0.0052 | 1.04 ± 0.022 | 1.02 ± 0.011 | 1.04 ± 0.033 | 0.985 ± 0.018 | 0.953 ± 0.011 | 1.02 ± 0.029 | 1.04 ± 0.039
143B BONE | 0.98 ± 0.044 | 0.99 ± 0.026 | 1.02 ± 0.023 | 1.01 ± 0.027 | 1.03 ± 0.018 | 1.03 ± 0.035 | 0.9815 ± 0.00071 | 0.763 ± 0.028 | 0.925 ± 0.14 | 1.07 ± 0.016 | 1.01 ± 0.021 | 1.065 ± 0.0021 | 0.885 ± 0.19 | 0.947 ± 0.17 | 1.01 ± 0.037 | 1.11 ± 0.057
SG27 HEADNECK | 1.03 ± 0.099 | 1.09 ± 0.17 | 0.997 ± 0.11 | 0.921 ± 0.094 | 1.12 ± 0.08 | 1.1 ± 0.074 | 0.249 ± 0.028 | 0.184 ± 0.015 | 1.15 ± 0.14 | 1.02 ± 0.069 | 1.03 ± 0.067 | 1.06 ± 0.1 | 1.04 ± 0.083 | 1.17 ± 0.059 | 1.15 ± 0.085 | 1.08 ± 0.12
T47D BREAST | 1 ± 0.034 | 1.017 ± 0.0096 | 0.983 ± 0.04 | 0.898 ± 0.047 | 1.07 ± 0.015 | 1.07 ± 0.046 | 0.891 ± 0.041 | 0.631 ± 0.018 | 1.06 ± 0.011 | 1.1 ± 0.036 | 1.11 ± 0.049 | 1.11 ± 0.017 | 0.997 ± 0.15 | 1.08 ± 0.08 | 1.02 ± 0.15 | 1.08 ± 0.16
MFM223 BREAST | 1.08 ± 0.091 | 1.05 ± 0.024 | 1.03 ± 0.03 | 1.01 ± 0.036 | 0.979 ± 0.051 | 0.461 ± 0.03 | 0.0642 ± 0.0082 | 0.0428 ± 0.0051 | 1.06 ± 0.062 | 1.45 ± 0.56 | 1.15 ± 0.042 | 1.46 ± 0.46 | 1.08 ± 0.086 | 1.08 ± 0.18 | 1.19 ± 0.046 | 1.08 ± 0.11
